What was measured:
full-length SHP2 = target: T1, full-length SHP2 (Homo sapiens, UniProt Q06124); test: SHP2 enzymatic assay (fluorescence intensity kinetic assay, DiFMUP hydrolysis); type: biochemical; conditions: 1 nM His6-tagged SHP2(2-527), 1 μM activating peptide, 50 μM DiFMUP; single assay or mean of multiple assays; read-out: Biological Example 1 IC50
T1 construct: 1 nM full-length SHP2 (His6-tagged SHP2(2-527), recombinantly expressed in E. coli and purified in-house); His6; made in house; host or cells: E. coli
T1 sequence (Q06124 2-527): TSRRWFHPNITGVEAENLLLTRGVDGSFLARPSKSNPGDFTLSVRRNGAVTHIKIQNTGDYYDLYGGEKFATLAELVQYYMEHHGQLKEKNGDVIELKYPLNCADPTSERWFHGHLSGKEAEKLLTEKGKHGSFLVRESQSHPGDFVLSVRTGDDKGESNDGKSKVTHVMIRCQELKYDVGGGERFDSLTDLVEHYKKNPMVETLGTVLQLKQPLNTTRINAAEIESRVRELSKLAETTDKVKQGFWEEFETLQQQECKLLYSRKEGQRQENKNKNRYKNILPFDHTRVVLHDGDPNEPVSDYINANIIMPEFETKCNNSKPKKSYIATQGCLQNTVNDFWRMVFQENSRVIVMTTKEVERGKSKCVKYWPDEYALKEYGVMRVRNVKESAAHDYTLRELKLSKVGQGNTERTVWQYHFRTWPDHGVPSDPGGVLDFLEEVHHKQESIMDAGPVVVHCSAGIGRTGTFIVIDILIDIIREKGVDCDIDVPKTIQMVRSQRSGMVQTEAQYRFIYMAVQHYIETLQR

[1] = tested on: ERK1/2 (Thr202/Tyr204) phosphorylation in KYSE520 cells; test: Cellular Phospho-p44/42 MAPK (Erk1/2) (Thr202/Tyr204) assay, In-Cell Western; type: cell-based; conditions: Homo sapiens, KYSE-520; KYSE520 cells, 1 hour incubation, pERK signal normalized to GAPDH; single assay or mean of multiple assays; read-out: Biological Example 2 IC50
Method: Inhibition of ERK1/2 (Thr202/Tyr204) phosphorylation was determined by the following cellular assay, which comprises incubating cells with a compound for 1 hour and quantifying pERK signal by In-Cell Western on fixed cells and normalizing to GAPDH signal. KYSE520 cells were obtained from DSMZ and grown in RPMI supplemented with 10% fetal bovine serum, penicillin/streptomycin, 2 mM L-alanyl-L-glutamine dipeptide in 0.85% NaCl (Glutamax™), non-essential amino acids, and sodium pyruvate. Cells were plated in 96-well plates at 30,000 cells/well and allowed to attach overnight at 37° C./5% CO2. Cells were treated with compounds prepared as a 10-point, 1:3 dilution series (range: 20 μM-1 nM), with a final DMSO concentration of 0.5%. After 1 hour incubation, cells were fixed in 3.7% formaldehyde in Dulbecco's phosphate-buffered saline (“dPBS”) at room temperature for 20 minutes. Cells were then washed with dPBS and permeabilized in 100% MeOH at room temperature for 10 minutes. Following permeabilization, cells were washed in dPBS and incubated in LI-COR Blocking Buffer (LI-COR Biosciences, Cat #927-40000) for 1 hour or longer. Plates were then incubated with an antibody specific for the MEK-dependent ERK1/2 phosphorylation sites, threonine 202 and tyrosine 204 (Cell Signaling Technologies; Cat #9101), downstream of SHP2 in the MAP kinase signal transduction pathway, as well as GAPDH (Millipore; Cat #MAB374). pErk1/2 (Thr202/Tyr204) antibody was diluted in LI-COR blocking buffer containing 0.05% polysorbate-20 (Tween-20) at 1:250; GAPDH was diluted at 1:2,500. The plates were incubated overnight at 4° C. After washing with PBS/0.05% Tween-20, the cells were incubated with fluorescently-labeled secondary antibodies (Anti-rabbit-Alexa Flour680, Invitrogen Cat #A21109; Anti-mouse-IRDye800CW, Li-cor Bioscieces Cat #926-32210, both at 1:1000 dilution) for 1 hour. Cells were then washed, as above, and analyzed for fluorescence at both 680 nm and 800 nm wavelengths using the Aerius Infrared Imaging System (LI-COR Biosciences, Model 9250). Phosphorylated Erk1/2 ([…]) signal was normalized to GAPDH signal for each well. IC50 values were calculated from the normalized values using a 4-parameter fit in BioAssay software. The reported IC50 in Table 2 may be from a single assay or the mean of multiple assays.

Compound | IC50 (full-length SHP2) [nM] | IC50 [1] [nM]
N[C@@H]1c2ccccc2CC12CCN(c1ncc(Sc3ccnc(C(F)(F)F)c3Cl)nn1)CC2 [Example 51, (S)-1′-(6-((3-chloro-2-(trifluoromethyl)pyridin-4-yl)thio)-1,2,4-triazin-3-yl)-1,3-dihydrospiro[indene-2,4′-piperidin]-1-amine] | 93 | 78
N[C@@H]1c2ccccc2CC12CCN(c1ncc(-c3ccccc3Cl)nn1)CC2 [Example 31, (S)-1′-(6-(2-chlorophenyl)-1,2,4-triazin-3-yl)-1,3-dihydrospiro[indene-2,4′-piperidin]-1-amine] | 23 | 424
N[C@@H]1c2ccccc2CC12CCN(c1ncc(Sc3n[nH]c4ncccc34)nn1)CC2 [Example 27, (S)-1′-(6-((1H-pyrazolo[3,4-b]pyridin-3-yl)thio)-1,2,4-triazin-3-yl)-1,3-dihydrospiro[indene-2,4′-piperidin]-1-amine] | 17 | 11
N[C@@H]1c2ccccc2CC12CCN(c1ncc(Sc3cnc4ccccn34)nn1)CC2 [Example 71, (S)-1′-(6-(imidazo[1,2-a]pyridin-3-ylthio)-1,2,4-triazin-3-yl)-1,3-dihydrospiro[indene-2,4′-piperidin]-1-amine] | 55 | 152
NC1C[C@@H]2CC[C@@H](C1)N2c1ncc(Sc2cccc(Cl)c2Cl)nn1 (stereo partly drawn) [Example 12, (1R,3s,5S)-8-(6-((2,3-dichlorophenyl)thio)-1,2,4-triazin-3-yl)-8-azabicyclo[3.2.1]octan-3-amine] | 174 | 1110
Nc1nccc(Sc2cnc(N3CCC4(CC3)Cc3ccccc3[C@H]4N)nn2)c1Br [Example 52, (S)-1′-(6-((2-amino-3-bromopyridin-4-yl)thio)-1,2,4-triazin-3-yl)-1,3-dihydrospiro[indene-2,4′-piperidin]-1-amine] | 27 | 2
Nc1ccc(Oc2cnc(N3CCC4(CC3)Cc3ccccc3[C@H]4N)nn2)cn1 [Example 22, (S)-1′-(6-((6-aminopyridin-3-yl)oxy)-1,2,4-triazin-3-yl)-1,3-dihydrospiro[indene-2,4′-piperidin]-1-amine] | 32 | 17
Nc1nccc(Sc2cnc(N3CCC4(CC3)Cc3ccccc3[C@H]4N)nn2)c1C1CC1 [Example 19, (S)-1′-(6-((2-amino-3-cyclopropylpyridin-4-yl)thio)-1,2,4-triazin-3-yl)-1,3-dihydrospiro[indene-2,4′-piperidin]-1-amine] | 44 | 208
N[C@@H]1c2ccccc2CC12CCN(c1ncc(Sc3c[nH]c4ccccc34)nn1)CC2 [Example 69, (S)-1′-(6-((1H-indol-3-yl)thio)-1,2,4-triazin-3-yl)-1,3-dihydrospiro[indene-2,4′-piperidin]-1-amine] | 19 | 170
N[C@@H]1c2ccccc2CC12CCN(c1ncc(Sc3cccc4c3CC4)nn1)CC2 [Example 37, (S)-1′-(6-(bicyclo[4.2.0]octa-1(6),2,4-trien-2-ylthio)-1,2,4-triazin-3-yl)-1,3-dihydrospiro[indene-2,4′-piperidin]-1-amine] | 11 | 31
CC(C)(C#N)CNc1nccc(Sc2cnc(N3CCC4(CC3)Cc3ccccc3[C@H]4N)nn2)c1Cl [Example 36, (S)-3-((4-((3-(1-amino-1,3-dihydrospiro[indene-2,4′-piperidin]-1′-yl)-1,2,4-triazin-6-yl)thio)-3-chloropyridin-2-yl)amino)-2,2-dimethylpropanenitrile] | 110 | 17

The next lines start with results.

IC50 (full-length SHP2) [nM] | Compound | IC50 [1] [nM]
141 | Cc1nc(N2CCC3(CC2)CO[C@@H](C)[C@H]3N)nnc1Sc1cccc(Cl)c1Cl [Example 13, (3S,4S)-8-(6-((2,3-dichlorophenyl)thio)-5-methyl-1,2,4-triazin-3-yl)-3-methyl-2-oxa-8-azaspiro[4.5]decan-4-amine] | 1030
14 | Cc1ccc2c(c1)[C@@H](N)C1(CCN(c3ncc(Sc4ccnc(N)c4Cl)nn3)CC1)C2 [Example 45, (S)-1′-(6-((2-amino-3-chloropyridin-4-yl)thio)-1,2,4-triazin-3-yl)-6-methyl-1,3-dihydrospiro[indene-2,4′-piperidin]-1-amine] | 2
30 | Cc1cccc2c1CC1(CCN(c3ncc(Sc4ccnc(N)c4Cl)nn3)CC1)[C@@H]2N [Example 48, (S)-1′-(6-((2-amino-3-chloropyridin-4-yl)thio)-1,2,4-triazin-3-yl)-4-methyl-1,3-dihydrospiro[indene-2,4′-piperidin]-1-amine] | 5
17 | C[C@@H]1OCC2(CCN(c3ncc(Sc4cccc(Cl)c4Cl)nn3)CC2)[C@@H]1N [Example 7, (3S,4S)-8-(6-((2,3-dichlorophenyl)thio)-1,2,4-triazin-3-yl)-3-methyl-2-oxa-8-azaspiro[4.5]decan-4-amine] | 89
59 | C[C@@H]1OCC2(CCN(c3ncc(Sc4ccnc(N)c4Cl)nn3)CC2)[C@@H]1N [Example 1, (3S,4S)-8-(6-((2-amino-3-chloropyridin-4-yl)thio)-1,2,4-triazin-3-yl)-3-methyl-2-oxa-8-azaspiro[4.5]decan-4-amine] | 55
53 | Cc1nccc(Sc2cnc(N3CCC4(CC3)CO[C@@H](C)[C@H]4N)nn2)c1Cl [Example 14, (3S,4S)-8-(6-((3-chloro-2-methylpyridin-4-yl)thio)-1,2,4-triazin-3-yl)-3-methyl-2-oxa-8-azaspiro[4.5]decan-4-amine] | 61
91 | Nc1nccc(Sc2cnc(N3CCC4(CC3)Cc3cc(Cl)ccc3[C@@H]4N)nn2)c1Cl [Example 46, (R)-1′-(6-((2-amino-3-chloropyridin-4-yl)thio)-1,2,4-triazin-3-yl)-5-chloro-1,3-dihydrospiro[indene-2,4′-piperidin]-1-amine] | 430
142 | COc1cnc2c(c1)[C@H](N)C1(CCN(c3ncc(Sc4ccnc(N)c4Cl)nn3)CC1)C2 (single isomer, unassigned) [Example 43] | 509
41 | Nc1nccc(Sc2cnc(N3CCC4(CC3)Cc3ccc(Cl)cc3[C@H]4N)nn2)c1Cl [Example 64, (S)-1′-(6-((2-amino-3-chloropyridin-4-yl)thio)-1,2,4-triazin-3-yl)-6-chloro-1,3-dihydrospiro[indene-2,4′-piperidin]-1-amine] | 286
358 | C[C@@H]1OCC2(CCN(c3ncc(Sc4c(Cl)cnc5[nH]ccc45)nn3)CC2)[C@@H]1N [Example 9, (3S,4S)-8-(6-((5-chloro-1H-pyrrolo[2,3-b]pyridin-4-yl)thio)-1,2,4-triazin-3-yl)-3-methyl-2-oxa-8-azaspiro[4.5]decan-4-amine] | 699
41 | Nc1nccc(Sc2cnc(N3CCC4(CC3)Cc3nc(Cl)sc3C4N)nn2)c1Cl (centres unmarked) [Example 76, 1′-(6-((2-amino-3-chloropyridin-4-yl)thio)-1,2,4-triazin-3-yl)-2-chloro-4,6-dihydrospiro[cyclopenta[d]thiazole-5,4′-piperidin]-6-amine] | 4
